Source: patent US20120058541A1, “ENGINEERING RESISTANCE TO ALIPHATIC ALCOHOLS” (BUTAMAX(TM) ADVANCED BIOFUELS LLC, priority 2009, published 2012)

Tested on: L. plantarum PN0512
Description: IC50 values were determined in shake flasks as follows. Duplicate glass test tubes containing 5 ml MRS medium plus 10 μg/ml chloramphenicol (MRS-Cm) were each inoculated with a single colony and grown for 24 h at 30° C. in a rollerdrum. 500 μl of each of these cultures were used to inoculate 25 ml MRS-Cm, which was grown for 16 h at 30° C. with shaking at 110 rpm. […] Cultures were grown at 30° C. with shaking at 110 rpm, and growth was measured by monitoring OD600. OD600 values that were clearly off the growth curve were discarded (less than 1% of values were discarded).
This is mathematically equivalent to drawing a line between (C1,I1) and (C2,I2) and finding the concentration at which that line intersects I=50%. An IC50 was calculated for each set of flasks inoculated from the same preculture. An average IC50 was also calculated.

CCCCO [Strain 1-butanol, 1-butanol]
1-butanol IC90: 2.3%
